From US20230150974A1 (Foghorn Therapeutics Inc., priority 2020, published 2023)

Experiments:
HiBiT-BRM = target: T1, HiBiT-BRM (Homo sapiens, UniProt P51531); assay: HiBiT-BRM cell-based degradation assay (Nano-Glo HiBiT Lytic Detection); settings: HeLa cells expressing HiBiT-BRM, 24 h; for DC50: read-out: BRM HiBit Degradation IC50
T1 construct: expressed in transfected cells
Protocol: (§1) Procedure: A stable HeLa cell line expressing HiBiT-BRM was generated. On day 0, 5000 cells were seeded in 40 μL of media into each well of 384-well cell culture plates. […] Subsequently plates were incubated for 24 h in a standard tissue culture incubator and equilibrated at room temperature for 15 minutes. Nano-Glo HiBiT Lytic Detection System (Promega N3050) reagent was freshly prepared and 20 ul was added to each well. Upon addition of this LgBit-containing reagent, the HiBiT and LgBiT proteins associate to form the luminescent NanoBiT luciferase. The plates were shaken for 10 minutes at room temperature and the bioluminescence read using an EnVision plate reader (PerkinElmer).
(§2) The degradation % was calculated using the following formula: % degradation=100%−100%×(LumSample−LumLC)/(LumHC−LumLC). DMSO treated cells are employed as High Control (HC) and 2 μM of a known BRM/BRG1 degrader standard treated cells are employed as Low Control (LC).

HiBit-BRG1 = target: T2, HiBit-BRG1 (Homo sapiens, UniProt P51532); assay: HiBit-BRG1 cell-based degradation assay (Nano-Glo HiBiT Lytic Detection); settings: HeLa cells expressing HiBit-BRG1 and LgBit, 24 h; for DC50: read-out: BRG1 HiBit Degradation IC50; for Dmax: read-out: BRG1 HiBit Degradation Maximum (%)
T2 construct: expressed in transfected cells
Protocol: as §1
For measurement of BRG1 degradation, a stable HeLa cell line expressing HiBit-BRG1 and LgBit was generated. The same protocol as above was then followed.
as §2

T2 sequence (P51532 whole entry): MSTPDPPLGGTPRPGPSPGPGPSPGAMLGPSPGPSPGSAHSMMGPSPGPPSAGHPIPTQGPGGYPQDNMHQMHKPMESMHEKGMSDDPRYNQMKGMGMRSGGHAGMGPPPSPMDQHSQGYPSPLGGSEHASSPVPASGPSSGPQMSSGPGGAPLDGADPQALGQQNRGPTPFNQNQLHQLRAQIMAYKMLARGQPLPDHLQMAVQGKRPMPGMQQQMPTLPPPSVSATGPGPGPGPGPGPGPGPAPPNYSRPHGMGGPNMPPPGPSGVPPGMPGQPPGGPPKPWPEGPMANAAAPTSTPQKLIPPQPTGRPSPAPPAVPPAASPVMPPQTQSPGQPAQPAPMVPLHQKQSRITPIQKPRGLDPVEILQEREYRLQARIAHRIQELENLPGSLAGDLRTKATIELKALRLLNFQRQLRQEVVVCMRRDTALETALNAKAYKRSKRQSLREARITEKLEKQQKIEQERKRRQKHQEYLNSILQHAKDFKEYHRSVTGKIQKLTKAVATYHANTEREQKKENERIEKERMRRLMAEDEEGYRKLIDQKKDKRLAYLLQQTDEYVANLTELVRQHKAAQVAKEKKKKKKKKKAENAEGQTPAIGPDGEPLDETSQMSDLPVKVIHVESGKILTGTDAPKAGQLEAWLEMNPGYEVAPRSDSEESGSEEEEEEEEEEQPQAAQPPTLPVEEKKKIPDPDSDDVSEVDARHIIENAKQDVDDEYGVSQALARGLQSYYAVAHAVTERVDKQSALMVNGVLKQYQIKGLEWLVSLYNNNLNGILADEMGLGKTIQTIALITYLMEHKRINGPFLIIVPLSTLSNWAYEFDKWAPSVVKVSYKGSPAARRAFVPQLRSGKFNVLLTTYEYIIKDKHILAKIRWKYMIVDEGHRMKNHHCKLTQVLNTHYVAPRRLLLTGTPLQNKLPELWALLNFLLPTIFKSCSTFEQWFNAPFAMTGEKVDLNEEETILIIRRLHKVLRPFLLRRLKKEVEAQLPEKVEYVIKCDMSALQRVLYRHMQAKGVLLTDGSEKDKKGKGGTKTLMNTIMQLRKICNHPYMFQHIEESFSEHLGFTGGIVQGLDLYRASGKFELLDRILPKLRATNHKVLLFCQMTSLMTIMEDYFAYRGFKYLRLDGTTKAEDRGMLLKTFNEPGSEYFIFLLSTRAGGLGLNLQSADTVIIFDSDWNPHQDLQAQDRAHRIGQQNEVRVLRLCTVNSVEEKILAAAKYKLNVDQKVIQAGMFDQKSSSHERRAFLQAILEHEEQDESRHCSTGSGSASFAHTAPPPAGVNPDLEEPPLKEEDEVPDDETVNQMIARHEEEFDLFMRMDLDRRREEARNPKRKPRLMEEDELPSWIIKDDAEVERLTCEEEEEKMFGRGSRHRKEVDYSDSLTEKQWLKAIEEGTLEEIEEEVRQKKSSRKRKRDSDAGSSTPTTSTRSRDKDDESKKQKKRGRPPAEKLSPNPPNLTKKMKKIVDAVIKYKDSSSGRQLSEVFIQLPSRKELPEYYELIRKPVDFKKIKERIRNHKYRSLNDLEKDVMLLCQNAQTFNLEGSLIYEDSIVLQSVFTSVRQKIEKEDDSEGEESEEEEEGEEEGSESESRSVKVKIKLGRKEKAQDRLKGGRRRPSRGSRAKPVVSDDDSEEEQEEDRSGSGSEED
T1 sequence (P51531 whole entry): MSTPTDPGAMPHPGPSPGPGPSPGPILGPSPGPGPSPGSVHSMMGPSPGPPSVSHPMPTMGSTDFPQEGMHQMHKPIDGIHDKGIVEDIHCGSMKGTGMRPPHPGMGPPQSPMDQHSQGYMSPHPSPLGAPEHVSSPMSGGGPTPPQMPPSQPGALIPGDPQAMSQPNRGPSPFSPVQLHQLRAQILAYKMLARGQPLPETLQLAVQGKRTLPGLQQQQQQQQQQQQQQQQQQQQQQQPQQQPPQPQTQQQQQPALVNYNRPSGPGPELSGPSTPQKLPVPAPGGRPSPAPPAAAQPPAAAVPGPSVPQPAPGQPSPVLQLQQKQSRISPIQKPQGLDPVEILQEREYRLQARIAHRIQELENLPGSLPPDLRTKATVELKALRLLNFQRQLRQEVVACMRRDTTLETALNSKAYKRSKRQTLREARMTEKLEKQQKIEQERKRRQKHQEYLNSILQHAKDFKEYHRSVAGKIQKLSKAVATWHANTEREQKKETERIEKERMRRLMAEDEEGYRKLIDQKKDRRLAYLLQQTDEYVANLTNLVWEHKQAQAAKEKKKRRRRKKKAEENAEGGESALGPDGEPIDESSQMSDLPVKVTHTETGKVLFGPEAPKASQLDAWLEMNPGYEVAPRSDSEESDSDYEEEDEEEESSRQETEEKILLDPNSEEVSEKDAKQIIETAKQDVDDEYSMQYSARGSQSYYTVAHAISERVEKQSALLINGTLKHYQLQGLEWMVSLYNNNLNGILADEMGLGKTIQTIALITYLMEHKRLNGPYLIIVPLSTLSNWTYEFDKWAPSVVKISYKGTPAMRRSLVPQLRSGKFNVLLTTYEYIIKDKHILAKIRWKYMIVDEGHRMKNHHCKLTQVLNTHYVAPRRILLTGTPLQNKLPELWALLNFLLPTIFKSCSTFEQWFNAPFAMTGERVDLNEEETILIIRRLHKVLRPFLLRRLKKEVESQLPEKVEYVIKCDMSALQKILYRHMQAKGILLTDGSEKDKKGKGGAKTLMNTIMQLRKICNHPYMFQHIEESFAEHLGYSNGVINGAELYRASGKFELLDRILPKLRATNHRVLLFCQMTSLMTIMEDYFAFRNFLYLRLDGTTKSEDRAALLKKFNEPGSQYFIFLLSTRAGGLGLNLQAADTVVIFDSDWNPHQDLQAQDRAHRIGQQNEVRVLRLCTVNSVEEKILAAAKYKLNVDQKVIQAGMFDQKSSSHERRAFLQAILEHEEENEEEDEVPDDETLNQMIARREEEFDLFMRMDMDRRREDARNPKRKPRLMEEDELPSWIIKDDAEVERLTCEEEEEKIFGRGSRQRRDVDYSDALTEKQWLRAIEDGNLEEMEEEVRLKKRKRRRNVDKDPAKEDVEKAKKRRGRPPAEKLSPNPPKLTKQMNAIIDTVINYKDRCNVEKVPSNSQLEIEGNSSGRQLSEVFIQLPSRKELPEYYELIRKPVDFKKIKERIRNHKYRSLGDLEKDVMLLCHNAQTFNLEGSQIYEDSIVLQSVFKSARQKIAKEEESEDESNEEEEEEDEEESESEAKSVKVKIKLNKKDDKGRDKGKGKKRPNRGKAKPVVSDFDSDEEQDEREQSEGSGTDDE

DC50 (HiBiT-BRM) [nM]	DC50 (HiBit-BRG1) [nM]	Dmax (HiBit-BRG1) [%]	SMILES	BRM HiBit Degradation Maximum (%) (HiBiT-BRM)
> 1000	> 1000	< 50	Nc1nnc(-c2ccccc2O)cc1OCCc1ccc(C(=O)NCCCCCCCCCCC(=O)NCc2ccc(S(=O)(=O)Nc3cccc4c(Cl)c[nH]c34)cc2)cc1 [Compound 11, 11-[[4-(2-[[3-amino-6-(2-hydroxyphenyl)pyridazin-4-yl]oxy]ethyl)phenyl]formamido]-N-([4-[(3-chloro-1H-indol-7-yl)sulfamoyl]phenyl]methyl)undecanamide]	C (“C” indicates maximum degradation <50%)
> 1000	> 1000	< 50	Nc1nnc(-c2ccccc2O)cc1OCCc1ccc(C(=O)NCCCCCCCCCC(=O)NCc2ccc(S(=O)(=O)Nc3cccc4c(Cl)c[nH]c34)cc2)cc1 [Compound 12, 10-[[4-(2-[[3-amino-6-(2-hydroxyphenyl)pyridazin-4-yl]oxy]ethyl)phenyl]formamido]-N-([4-[(3-chloro-1H-indol-7-yl)sulfamoyl]phenyl]methyl)decanamide]	C (“C” indicates maximum degradation <50%)
> 1000	> 1000	< 50	Nc1nnc(-c2ccccc2O)cc1OCCc1ccc(C(=O)NCCCCCCC(=O)NCc2ccc(S(=O)(=O)Nc3cccc4c(Cl)c[nH]c34)cc2)cc1 [Compound 13, 7-[[4-(2-[[3-amino-6-(2-hydroxyphenyl)pyridazin-4-yl]oxy]ethyl)phenyl]formamido]-N-([4-[(3-chloro-1H-indol-7-yl)sulfamoyl]phenyl]methyl)heptanamide]	C (“C” indicates maximum degradation <50%)
> 1000	> 1000	< 50	Nc1nnc(-c2ccccc2O)cc1OCCc1ccc(C(=O)NCCCCCC(=O)NCc2ccc(S(=O)(=O)Nc3cccc4c(Cl)c[nH]c34)cc2)cc1 [Compound 14, 6-[[4-(2-[[3-amino-6-(2-hydroxyphenyl)pyridazin-4-yl]oxy]ethyl)phenyl]formamido]-N-([4-[(3-chloro-1H-indol-7-yl)sulfamoyl]phenyl]methyl)hexanamide]	C (“C” indicates maximum degradation <50%)
> 1000	> 1000	< 50	Nc1nnc(-c2ccccc2O)cc1OCCc1ccc(C(=O)NCCCCC(=O)NCc2ccc(S(=O)(=O)Nc3cccc4c(Cl)c[nH]c34)cc2)cc1 [Compound 15, 4-(2-((3-amino-6-(2-hydroxyphenyl)pyridazin-4-yl)oxy)ethyl)-N-(5-((4-(N-(3-chloro-1H-indol-7-yl)sulfamoyl)benzyl)amino)-5-oxopentyl)benzamide]	C (“C” indicates maximum degradation <50%)
> 1000	> 1000	< 50	Nc1nnc(-c2ccccc2O)cc1OCCc1ccc(C(=O)NCCCC(=O)NCc2ccc(S(=O)(=O)Nc3cccc4c(Cl)c[nH]c34)cc2)cc1 [Compound 16, 4-[[4-(2-[[3-amino-6-(2-hydroxyphenyl)pyridazin-4-yl]oxy]ethyl)phenyl]formamido]-N-([4-[(3-chloro-1H-indol-7-yl)sulfamoyl]phenyl]methyl)butanamide]	C (“C” indicates maximum degradation <50%)
> 1000	> 1000	< 50	Nc1nnc(-c2ccccc2O)cc1OCCc1ccc(C(=O)NCCC(=O)NCc2ccc(S(=O)(=O)Nc3cccc4c(Cl)c[nH]c34)cc2)cc1 [Compound 17, 3-[[4-(2-[[3-amino-6-(2-hydroxyphenyl)pyridazin-4-yl]oxy]ethyl)phenyl]formamido]-N-([4-[(3-chloro-1H-indol-7-yl)sulfamoyl]phenyl]methyl)propanamide]	C (“C” indicates maximum degradation <50%)
> 1000	> 1000	< 50	Nc1nnc(-c2ccccc2O)cc1OCCc1ccc(C(=O)NCC(=O)NCc2ccc(S(=O)(=O)Nc3cccc4c(Cl)c[nH]c34)cc2)cc1 [Compound 18, 2-[[4-(2-[[3-amino-6-(2-hydroxyphenyl)pyridazin-4-yl]oxy]ethyl)phenyl]formamido]-N-([4-[(3-chloro-1H-indol-7-yl)sulfamoyl]phenyl]methyl)acetamide]	C (“C” indicates maximum degradation <50%)
> 1000	> 1000	< 50	Nc1nnc(-c2ccccc2O)cc1OCCc1ccc(CNC(=O)C2CCN(CCOc3ccc4c(c3)C(=O)N(C3CCC(=O)NC3=O)C4=O)CC2)cc1 (stereo not shown) [Compound 19, N-(4-(2-((3-amino-6-(2-hydroxyphenyl)pyridazin-4-yl)oxy)ethyl)benzyl)-1-(2-((2-(2,6-dioxopiperidin-3-yl)-1,3-dioxoisoindolin-5-yl)oxy)ethyl)piperidine-4-carboxamide]	C (“C” indicates maximum degradation <50%)
> 10	> 100	> 75	Cc1ncsc1-c1ccc(CNC(=O)[C@@H]2C[C@@H](O)CN2C(=O)[C@@H](NC(=O)CCCCCCCCCNC(=O)c2ccc(CCN(C)c3cc(-c4ccccc4O)nnc3N)cc2)C(C)(C)C)cc1 [Compound 20, (2S,4R)-1-[(2S)-2-(10-[[4-(2-[[3-amino-6-(2-hydroxyphenyl)pyridazin-4-yl](methyl)amino]ethyl)phenyl]formamido]decanamido)-3,3-dimethylbutanoyl]-4-hydroxy-N-[[4-(4-methyl-1,3-thiazol-5-yl)phenyl]methyl]pyrrolidine-2-carboxamide]	A (“A” indicates maximum degradation ≥75%)
> 100	> 1000	< 50	Nc1nnc(-c2ccccc2O)cc1OCCc1ccc(C(=O)NCCCCCOc2cccc3c2C(=O)N(C2CCC(=O)NC2=O)C3=O)cc1 (stereo not shown) [Compound 21, 4-(2-[[3-amino-6-(2-hydroxyphenyl)pyridazin-4-yl]oxy]ethyl)-N-(5-[[2-(2,6-dioxopiperidin-3-yl)-1,3-dioxoisoindol-4-yl]oxy]pentyl)benzamide]	B (“B” indicates maximum degradation ≥50%)
> 1000	> 1000	< 50	Nc1nnc(-c2ccccc2O)cc1OCCc1ccc(C(=O)NCCCCCCCCCCCC(=O)NCc2ccc(S(=O)(=O)Nc3cccc4c(Cl)c[nH]c34)cc2)cc1 [Compound 22, 12-[[4-(2-[[3-amino-6-(2-hydroxyphenyl)pyridazin-4-yl]oxy]ethyl)phenyl]formamido]-N-([4-[(3-chloro-1H-indol-7-yl)sulfamoyl]phenyl]methyl)dodecanamide]	C (“C” indicates maximum degradation <50%)
> 1000	> 1000	< 50	Nc1nnc(-c2ccccc2O)cc1OCCc1ccc(C(=O)NCCCCCCCCC(=O)NCc2ccc(S(=O)(=O)Nc3cccc4c(Cl)c[nH]c34)cc2)cc1 [Compound 23, 9-[[4-(2-[[3-amino-6-(2-hydroxyphenyl)pyridazin-4-yl]oxy]ethyl)phenyl]formamido]-N-([4-[(3-chloro-1H-indol-7-yl)sulfamoyl]phenyl]methyl)nonanamide]	C (“C” indicates maximum degradation <50%)
> 1000	> 1000	< 50	Cc1ncsc1-c1ccc(CNC(=O)[C@@H]2C[C@@H](O)CN2C(=O)[C@@H](NC(=O)CCCOCCOCCNC(=O)c2ccc(CCOc3cc(-c4ccccc4O)nnc3N)cc2)C(C)(C)C)cc1 [Compound 24, (2S,4R)-1-[(2S)-2-[4-[2-(2-[[4-(2-[[3-amino-6-(2-hydroxyphenyl)pyridazin-4-yl]oxy]ethyl)phenyl]formamido]ethoxy)ethoxy]butanamido]-3,3-dimethylbutanoyl]-4-hydroxy-N-[[4-(4-methyl-1,3-thiazol-5-yl)phenyl]methyl]pyrrolidine-2-carboxamide]	C (“C” indicates maximum degradation <50%)
> 1000	> 1000	< 50	Nc1nnc(-c2ccccc2O)cc1OCCc1ccc(C(=O)NCCCCCCCC(=O)NCc2ccc(S(=O)(=O)Nc3cccc4c(Cl)c[nH]c34)cc2)cc1 [Compound 25, 8-[[4-(2-[[3-amino-6-(2-hydroxyphenyl)pyridazin-4-yl]oxy]ethyl)phenyl]formamido]-N-([4-[(3-chloro-1H-indol-7-yl)sulfamoyl]phenyl]methyl)octanamide]	C (“C” indicates maximum degradation <50%)
> 100	> 1000	< 50	Cc1ncsc1-c1ccc(CNC(=O)[C@@H]2C[C@@H](O)CN2C(=O)[C@@H](NC(=O)CCCCCCCCCNCc2ccc(CCOc3cc(-c4ccccc4O)nnc3N)cc2)C(C)(C)C)cc1 [Compound 26, (2S,4R)-1-((S)-2-(10-((4-(2-((3-amino-6-(2-hydroxyphenyl)pyridazin-4-yl)oxy)ethyl)benzyl)amino)decanamido)-3,3-dimethylbutanoyl)-4-hydroxy-N-(4-(4-methylthiazol-5-yl)benzyl)pyrrolidine-2-carboxamide]	A (“A” indicates maximum degradation ≥75%)
